Like-named read-outs stand apart in the source and are kept apart here. Each block holds one molecule with its values, some of them ahead of it.
How the values were obtained:
[1] = Threshold solubility of salt screen 96 well plate; conditions: DI water
Description: Following each addition, the plate was shaken to encourage mixing for at least 5 minutes prior to evaluation.

[2] = Moisture-sorption analysis (Hiden IGAsorp); type: physicochemical; conditions: 25° C.
Description: Moisture-sorption experiments were performed using a Hiden IGAsorp Moisture Sorption instrument on KX2-391.MSA obtained in accordance with the process of the present invention (Example 4). First, the sample was dried at 0% Relative Humidity (RH) and 25° C. until an equilibrium weight was reached or for a maximum of four hours. The sample was then subjected to an isothermal (25° C.) adsorption scan from 10 to 90% RH in steps of 10%. The sample was allowed to equilibrate to an asymptotic weight at each point for a maximum of four hours. Following adsorption, a desorption scan from 85 to 0% RH (at 25° C.) was run in steps of −10% again allowing a maximum of four hours for equilibration to an asymptotic weight. The sample was then dried for one hour at 80° C. and the resulting solid analyzed by XRPD. […] FIG. 10 depicts percent change of water content as a function of relative humidity for KX2-391.MSA, Form A.
Moisture-sorption experiments were performed using a Hiden IGAsorp Moisture Sorption Instrument on KX2-391.2HCl obtained in accordance with the process of the present invention (Example 3). First, the sample was dried at 0% Relative Humidity (RH) and 25° C. until an equilibrium weight was reached or for a maximum of four hours. The sample was then subjected to an isothermal (25° C.) adsorption scan from 10 to 90% RH in steps of 10%. The sample was allowed to equilibrate to an asymptotic weight at each point for a maximum of four hours. Following adsorption, a desorption scan from 85 to 0% RH (at 25° C.) was run in steps of −10% again allowing a maximum of four hours for equilibration to an asymptotic weight. The sample was then dried for one hour at 80° C. and the resulting solid analyzed by XRPD.

[3] = Solubility in DI water and pH 2.0 phosphate buffer; type: physicochemical; conditions: for solubility: thermodynamic from solid
Description: The table below summarizes additional characterization data for the fumaric and maleate KX2-391.MSA salts and compares it to free base, bis-HCl, and MSA salts described above. The results in the table below were obtained using the procedures described above in Examples 5 (XRPD), 6 (DSC), 7 (TGA), and 8 (moisture-sorption).
Solubility experiments were also performed using pH 2.0 phosphate buffer and DI water pH 6.9 and KX2-391.MSA, Form A. Each vial was filled with approximately 50 mg of KX2-391.MSA, Form A and 100 μL aliquots of the corresponding solvent was added until complete dissolution was observed, followed by stirring at room temperature for one and five days. The solids obtained were isolated by filtration, dried under vacuum at room temperature and analyzed by HPLC. The initial HPLC purity of KX2-391.MSA, Form A was 99.4 (% area). The solubility by HPLC of KX2-391.MSA, Form A in phosphate buffer/RT was >500 mg/mL and HPLC purity was measured to be 99.4. The solubility by HPLC of KX2-391.MSA, Form A in DI H2O/RT was >500 mg/mL and HPLC purity was measured to be 99.4.

[4] = 5 mg/mL DI water dissolution experiment; type: physicochemical; parameters: key to dissolution state: P—Particulates partially dissolved; D—Particulates fully dissolved; conditions: for dissolution in 5 mg/mL DI water experiment: 5 mg in 1 mL DI water
Description: Dissolution experiments were performed on KX2-391 salts to provide a better understanding of the salts interaction in water. This was accomplished using a 5 mg/mL DI water dissolution experiment where 5 mg of each salt was weighed into a vial and 1 mL of DI wather was added. The solution was monitored visually with magnetic stirring over a 20 minute time period to observe the time of dissolution.

[5] = Humidity chamber hygroscopicity study (salt solution chambers, visual inspection); type: physicochemical; conditions: ambient temperature
Description: Further characterization of the hygroscopicity of the mesylate salt was performed using several humidity chambers to cover a range of humidity from 75, 88 to 95% RH. The 75, 88, and 95% RH chambers were prepared with NaCl, BaCl2.2H2O, and Na2HPO4.12 H2O respectively and were equilibrated for 48 hours prior to introducing the samples. Samples were placed into aluminum pans and monitored by visual inspection for up to five days. Table 3 summarizes the observations at 0, 3, 5, 24, 48, 72, 96 and 120 hour time points.
Moisture sorption studies conducted at ambient temperature utilizing salt solution humidity chambers were conducted to evaluate solid stability by visual inspection.

[6] = as above; type: physicochemical; conditions: ambient temperature
[7] = salt screen well: 1 Equivalent of Acid, ACN
[8] = salt screen well: 1 Equivalent of Acid, Acetone
[9] = salt screen well: 1 Equivalent of Acid, Dioxane
[10] = salt screen well: 1 Equivalent of Acid, EtOH
[11] = salt screen well: 1 Equivalent of Acid, IPA
[12] = salt screen well: 1 Equivalent of Acid, THF
[13] = about 5 mg in 1 mL DI water, magnetic stirring, 0 s
[14] = about 5 mg in 1 mL DI water, magnetic stirring, 30 s
[15] = about 5 mg in 1 mL DI water, magnetic stirring, 1 min
[16] = about 5 mg in 1 mL DI water, magnetic stirring, 2 min
[17] = about 5 mg in 1 mL DI water, magnetic stirring, 5 min
[18] = about 5 mg in 1 mL DI water, magnetic stirring, 10 min (1 mL DI water added)
[19] = about 5 mg, after additional 1 mL DI water, 15 min
[20] = about 5 mg, after additional 1 mL DI water, 20 min
[21] = salt screen well: 2 Equivalents of Acid, Acetone
[22] = salt screen well: 2 Equivalents of Acid, Dioxane
[23] = salt screen well: 2 Equivalents of Acid, THF
[24] = % RH 90.0102, end of adsorption
[25] = % RH 90.0102, start of desorption
[26] = % RH −0.0430, end of desorption
[27] = % RH −0.0500, start of adsorption scan

Moisture Sorption Wt % Water @ 90% RH [2]: 0.5 wt %
Solubility mg/mL [3]: DI H20: 7.6 mg/mL
pH of solubility sample [3]: (4.5*)
Solubility mg/mL ([3]; pH 2): pH 2: 21.5 mg/mL
pH of solubility sample ([3]; pH 2): (4.5*)
dissolution state [4, 13]: P
dissolution state [4, 14]: P
dissolution state [4, 15]: P
dissolution state [4, 16]: P
dissolution state [4, 17]: P
dissolution state [4, 18]: P
dissolution state [4, 19]: P
dissolution state [4, 20]: D
Threshold solubility rank [1, 7]: 5
Threshold solubility rank [1, 8]: 5
Threshold solubility rank [1, 9]: 4
Threshold solubility rank [1, 10]: 2
Threshold solubility rank [1, 11]: 2
Threshold solubility rank [1, 12]: 5
Threshold solubility rank ([1]; salt screen well: 2 Equivalents of Acid, ACN): 5
Threshold solubility rank [1, 21]: 5
Threshold solubility rank [1, 22]: 2
Threshold solubility rank ([1]; salt screen well: 2 Equivalents of Acid, IPA): 2
Threshold solubility rank [1, 23]: 5
Molecule: O=C(Cc1ccc(-c2ccc(OCCN3CCOCC3)cc2)cn1)NCc1ccccc1.O=C(O)C=CC(=O)O [Fumaric]
dissolution in 5 mg/mL DI water experiment ([4]; magnetic stirring): not observed to dissolve solids within 10 minutes

Time to deliquescence ([5]; 42% RH): <3 h
Time to deliquescence ([5]; 51% RH, dihydrochloride): ≤ 12 h
Time to deliquescence ([5]; 51% RH, listed as KX2-391•2HCl, dihydrochloride): <12 h
Results (visual inspection) ([5]; 95% RH): Deliquescence
Time to deliquescence ([5]; 95% RH, dihydrochloride): ≤ 12 h
Time to deliquescence ([5]; 95% RH, listed as KX2-391•2HCl, dihydrochloride): <12 h
deliquescence humidity at ambient temperature [5]: 32-42 % RH
inflection point of moisture sorption (suggesting deliquescence) [2]: 40-50 % RH
hygroscopicity by moisture sorption analysis ([2]; adsorption scan 10 to 90% RH): significantly hygroscopic
water absorbed at 60% RH ([2]; 60% RH): 16.7 wt %
Moisture Sorption Wt % Water @ 90% RH [2]: 27.0 wt %
Mole ration (water:sample) ([2]; % RH 4.9957, desorption): 1.3860
Wt % water ([2]; % RH 4.9957, desorption): 4.7176 Wt %
Mole ration (water:sample) ([2]; % RH 10.0011, adsorption): 2.0998
Wt % water ([2]; % RH 10.0011, adsorption): 6.9776 Wt %
Mole ration (water:sample) ([2]; % RH 15.0035, desorption): 2.0512
Wt % water ([2]; % RH 15.0035, desorption): 6.8271 Wt %
Mole ration (water:sample) ([2]; % RH 20.0071, adsorption): 2.4810
Wt % water ([2]; % RH 20.0071, adsorption): 8.1412 Wt %
Mole ration (water:sample) ([2]; % RH 25.0029, desorption): 4.0655
Wt % water ([2]; % RH 25.0029, desorption): 12.6812 Wt %
Mole ration (water:sample) ([2]; % RH 29.9953, adsorption): 2.7855
Wt % water ([2]; % RH 29.9953, adsorption): 9.0498 Wt %
Mole ration (water:sample) ([2]; % RH 35.0089, desorption): 4.3683
Wt % water ([2]; % RH 35.0089, desorption): 13.4981 Wt %
Mole ration (water:sample) ([2]; % RH 39.9936, adsorption): 3.1317
Wt % water ([2]; % RH 39.9936, adsorption): 10.0615 Wt %
Mole ration (water:sample) ([2]; % RH 45.0063, desorption): 4.6309
Wt % water ([2]; % RH 45.0063, desorption): 14.1945 Wt %
Mole ration (water:sample) ([2]; % RH 50.0083, adsorption): 4.7853
Wt % water ([2]; % RH 50.0083, adsorption): 14.5986 Wt %
Mole ration (water:sample) ([2]; % RH 54.9876, desorption): 4.8578
Wt % water ([2]; % RH 54.9876, desorption): 14.7870 Wt %
Mole ration (water:sample) ([2]; % RH 59.9940, adsorption): 5.6228
Wt % water ([2]; % RH 59.9940, adsorption): 16.7261 Wt %
Mole ration (water:sample) ([2]; % RH 64.9989, desorption): 5.0957
Wt % water ([2]; % RH 64.9989, desorption): 15.3997 Wt %
Mole ration (water:sample) ([2]; % RH 70.0044, adsorption): 6.6487
Wt % water ([2]; % RH 70.0044, adsorption): 19.1922 Wt %
Mole ration (water:sample) ([2]; % RH 75.0016, desorption): 5.5767
Wt % water ([2]; % RH 75.0016, desorption): 16.6119 Wt %
Mole ration (water:sample) ([2]; % RH 80.0002, adsorption): 7.4350
Wt % water ([2]; % RH 80.0002, adsorption): 20.9856 Wt %
Mole ration (water:sample) ([2]; % RH 84.9979, desorption): 8.3910
Wt % water ([2]; % RH 84.9979, desorption): 23.0617 Wt %
Mole ration (water:sample) [2, 24]: 10.3345
Wt % water [2, 24]: 26.9630 Wt %
Mole ration (water:sample) [2, 25]: 10.3345
Wt % water [2, 25]: 26.9630 Wt %
Mole ration (water:sample) [2, 26]: 0.3038
Wt % water [2, 26]: 1.0737 Wt %
Mole ration (water:sample) [2, 27]: 1.7493
Wt % water [2, 27]: 5.8814 Wt %
pH of solubility sample [3]: 2.1
pH of solubility sample ([3]; pH 2): (1.9)
solubility ([3]; pH 2, aqueous buffer): > 500 mg/mL
solubility ([3]; pH 6.9, water): > 500 mg/mL
Results (visual inspection) ([6]; 32% RH, 7 days, dihydrochloride): remain stable
Results (visual inspection) ([6]; 32% RH, 7 days, listed as KX2-391•2HCl, dihydrochloride): Solid
Results (visual inspection) ([6]; 42% RH, dihydrochloride): Deliquescence
Results (visual inspection) ([6]; 51% RH): Deliquescence
Molecule: Cl.Cl.O=C(Cc1ccc(-c2ccc(OCCN3CCOCC3)cc2)cn1)NCc1ccccc1 [KX2-391.2HCl, 2-(5-(4-(2-morpholinoethoxy)phenyl)pyridine-2-yl)-N-benzylacetamide dihydrochloride]
Results (visual inspection) ([5]; 42% RH, dihydrochloride): deliquescence was observed within three hours

More lines, now with the values behind:

Molecule: Cc1ccc(S(=O)(=O)O)cc1.O=C(Cc1ccc(-c2ccc(OCCN3CCOCC3)cc2)cn1)NCc1ccccc1 [p-TSA]
Threshold solubility rank [1, 7]: 5
Threshold solubility rank [1, 8]: 5
Threshold solubility rank [1, 9]: 5
Threshold solubility rank [1, 10]: 5
Threshold solubility rank [1, 11]: 5
Threshold solubility rank [1, 12]: 5

Molecule: O=C(O)CC(O)C(=O)O (stereo not drawn) [Malic]
Threshold solubility rank [1, 9]: 1

Molecule: Maleate
Moisture Sorption Wt % Water @ 90% RH [2]: 1.4 wt %
Solubility mg/mL ([3]; DI H2O): DI H20: 7.3 mg/mL
pH of solubility sample ([3]; DI H2O, * approximate, pH paper instead of meter): (4.5*)
Solubility mg/mL ([3]; pH 2): pH 2: 21.2 mg/mL
pH of solubility sample ([3]; pH 2 medium, * approximate, pH paper instead of meter): (4.5*)
dissolution in 5 mg/mL DI water experiment ([4]; magnetic stirring): not observed to dissolve solids within 10 minutes
dissolution state [4, 13]: P
dissolution state [4, 14]: P
dissolution state [4, 15]: P
dissolution state [4, 16]: P
dissolution state [4, 17]: P
dissolution state [4, 18]: P
dissolution state [4, 19]: P
dissolution state [4, 20]: P
Threshold solubility rank [1, 7]: N
Threshold solubility rank [1, 8]: N
Threshold solubility rank [1, 9]: N
Threshold solubility rank [1, 10]: N
Threshold solubility rank [1, 11]: N
Threshold solubility rank [1, 12]: N
Threshold solubility rank [1, 21]: 1
Threshold solubility rank [1, 22]: 1
Threshold solubility rank [1, 23]: 1

From US10323001B2, “Compositions for modulating a kinase cascade and methods of use thereof” (Athenex, Inc., priority 2006, dated 2019)
